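Interpolation was linear, between the two tested concentrations surrounding the appropriate level; five concentrations were tested over 48 hours in 96-well plates. TGI: concentration producing complete growth inhibition.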
Legend:
Experiment in all cases: NCI-60 cell line screen, 48 h
[1] = tested on: SK-MEL-2 melanoma
[2] = tested on: TK-10 renal
[3] = tested on: MCF7 breast
[4] = tested on: COLO 205 colon
[5] = tested on: SF-295 CNS
[6] = tested on: SR leukemia
[7] = tested on: UACC-257 melanoma
[8] = tested on: K-562 leukemia
[9] = tested on: MDA-MB-231 breast
[10] = tested on: SF-539 CNS
[11] = tested on: CCRF-CEM leukemia
[12] = tested on: HT29 colon
[13] = tested on: LOX IMVI melanoma

SMILES	TGI [1] [µM]	TGI [2] [µM]	TGI [3] [µM]	TGI [4] [µM]	TGI [5] [µM]	TGI [6] [µM]	TGI [7] [µM]	TGI [8] [µM]	TGI [9] [µM]	TGI [10] [µM]	TGI [11] [µM]	TGI [12] [µM]	TGI [13] [µM]
COc1ccc(NS(=O)c2ccc(OC)cc2)cc1 (configuration not stated)	83.6	> 100	> 100	> 100	> 100	> 100	> 100	> 100	> 100	32.5	> 100	> 100	> 100
O=C(n1c(=O)n(-c2ccc(Cl)cc2)c(=O)n1C(=O)C(Cl)(Cl)Cl)C(Cl)(Cl)Cl	> 100	> 100	> 100	> 100	> 100	> 100	> 100	> 100	> 100	> 100	> 100	> 100	> 100
CC(=O)OC[C@@H](OC(C)=O)[C@@H](OC(C)=O)[C@H]1OC[C@@H]2C[C@H]([C@H]1OC(C)=O)N(Cc1ccccc1)O2	> 100	> 100	> 100	> 100	> 100	> 100	> 100	> 100	> 100	> 100	> 100	> 100	> 100
Cc1ccc(/C(O)=C/c2nc3ccccc3[nH]c2=O)c(C)c1	> 80.4	21.1	> 100	> 100	53	> 100	> 75.9	> 100	> 46.6	31.6	> 100	> 86.3	> 100
O/N=C1\CCc2cc3c(cc21)CCC3	> 100	> 100	> 100	> 100	> 100	> 100	> 100	> 100	> 100	> 100	> 100	> 100	> 100
O=C(OC(/C=C/c1ccccc1)P1(=O)N(Cc2ccccc2)[C@@H]2CCCC[C@H]2N1Cc1ccccc1)c1ccccc1 (some centres not stated)	5.67	> 100	> 100	4.75	> 100	15.2	> 54.7	> 100	30.3	> 100	7.88	> 100	> 74.9
CN1CCN(CCCCN2c3ccccc3Sc3ccc(N=[N+]=[N-])cc32)CC1	12.9	27.9	9.75	3.51	27.9	7.07	4.22	4.07	15	20.4	7.75	4.59	7.59
OC(C/C(=N\N=C(/CC(O)(C(F)(F)F)C(F)(F)F)c1ccccc1)c1ccccc1)(C(F)(F)F)C(F)(F)F	> 10	> 10	> 10	> 10	> 10	> 10	> 10	> 10	> 10	> 10	> 10	> 10	> 10
O=C1C(=C(C(=O)c2ccccc2)C(=O)c2ccccc2)OC(c2ccccc2)=C1C(=O)c1ccccc1	28.3	61.4	29.7	25.7	32.1	14.2	55.1	95	32.2	22.3	10.9	26.5	18.5
CC(C)(C)N(Cc1ccoc1)C(=O)/C=C\S(=O)c1ccccc1 (configuration not stated)	39.6	> 100	36.7	43.9	> 100	77.8	46.1	> 100	42.3	42.9	> 100	97.7	21.8
COc1ccc2nc3ccc(OC)cc3c(SCC3CO3)c2c1 (configuration not stated)	28.4	25.8	26.6	41.8	> 100	80.4	29.8	54.1	28.7	23.7	> 100	–	33.4
CN(C)/C=C/c1ccncc1	> 100	> 100	> 100	> 100	> 100	> 100	> 100	> 100	> 100	> 100	> 100	> 100	> 100
CCN1C[C@]2(C)CC[C@H](OCc3ccccc3)C34C5C[C@@H]6CC[C@](O)(C(C[C@@H]32)C14)C5[C@H]6OCc1ccccc1 (some centres not stated)	> 100	> 100	> 100	> 100	> 100	> 100	> 100	> 100	> 100	> 100	> 100	> 100	> 100
CCCCc1ccc(Nc2nc(N)c3ncn(COCCO)c3n2)cc1	37.5	> 100	> 100	43.8	41.2	> 100	44.4	> 100	76.7	60.6	> 100	57.2	37.4
CCOC(=O)C(=CNC(=S)Nc1c(CC)cccc1CC)C(=O)OCC	> 100	> 100	> 100	> 100	> 100	> 100	> 100	> 100	> 100	> 100	> 100	> 100	> 100
CC(C)c1ccc2[nH]c(O)c(C3=Nc4ccccc4C3=O)c2c1	53.8	54.2	1.3	> 100	> 100	54.5	> 100	> 100	48	–	> 100	> 100	> 100
COc1ccc(/C=C2\CN(C)CC3C2=NC(=S)NC3c2ccc(OC)cc2)cc1 (configuration not stated)	> 64.8	> 100	> 100	> 39.3	> 75.8	> 100	> 100	> 100	> 59.1	59.5	> 24.7	83.1	> 100
COC(=O)C1(C)CCCC2(C)C3CCC4CC3(C=C4CO)CCC12 (configuration not stated)	> 100	> 100	72.7	> 100	> 100	62	> 100	–	> 100	> 100	> 100	30.9	47.4
O=C(CN1CCOCC1)Nc1ccc2c(c1)C1Oc3ccccc3CC1CO2 (configuration not stated)	> 100	> 100	> 100	> 100	> 100	> 100	> 100	> 100	> 100	> 100	> 100	> 100	> 100
CCOC(=O)c1nc2ccccc2nc1Oc1ccc(OC)cc1	> 100	> 100	> 100	> 100	> 100	> 100	> 100	> 100	> 100	> 100	> 100	> 100	> 100
C1=NCCNCCN=Cc2ccccc2OCc2cccc(n2)COc2ccccc21	99.8	> 75.6	> 56.9	> 100	> 51.4	> 100	> 100	> 79.5	> 95.5	11.1	> 34.3	47.3	34
C/C1=C\CC/C(C)=C/C=C(/C(C)C)CC/C(C(=O)O)=C/CC1	62.2	> 100	> 100	43.2	78.3	> 100	> 100	> 100	> 100	> 100	> 100	> 100	> 100
COC(=O)CC1(O)C(/C=C/c2ccccc2)C(C(=O)OC)C(=O)C(C(=O)OC)C1C(=O)OC (configuration not stated)	> 100	> 100	> 100	> 100	> 100	> 100	> 100	> 100	> 100	> 100	> 100	> 100	> 100
Nc1ccccc1OCc1cc(=O)c(OCc2ccccc2)co1	–	61.2	89	44.9	95.1	> 100	81.7	> 100	55.8	65.1	> 100	> 100	> 100
O=[N+]([O-])/C=C/COCc1cc2c(cc1Br)OCO2	–	34.8	33.5	43.6	> 100	54.1	33.3	> 100	33	63.6	11.5	45.4	> 100
Nc1cccc(C#Cc2cccc(C#Cc3cccc(N)n3)n2)n1	> 100	> 100	> 100	> 100	> 100	> 100	> 100	> 100	> 100	> 100	31.4	–	> 100

— PubChem BioAssay (NCI)
